Where two headings read alike, the source gives them in different places.
Experiments:
NLRP3 inflammasome = NLRP3 inflammasome (Homo sapiens, UniProt Q96P20); assay: Inhibition of IL-1β release, NLRP3 inflammasome activation assay in HMDM; format: cell-based
Experimental: The following assays can be used to determine inhibitory activity of test compounds on the NLRP3 inflammasome using common stimuli such as adenosine triphosphate, nigericin, LeuLeu-OMe or monosodium urate crystals (MSU).
To generate HMDM, human monocytes are isolated from buffy coat blood using Ficoll-Plaque Plus (GE Healthcare) and density centrifugation. CD14^+ cell selection is performed using MACS magnetic beads (Miltenyl Biotec).
HMDM are seeded at 1×10^5/ml. […] Medium is removed and replaced with serum free medium (SFM) containing test compound 30 min prior to NLRP3 stimulation. […] ATP can be sourced from Sigma Aldrich, nigericin and MSU from Invivogen and LeuLeu-Ome from Chem-Impex International.
For ELISA and cell death assays cells are seeded in 96 well plates. Supernatants are removed and analysed using ELISA kits according to the manufacturer's instructions (DuoSet® R&D Systems, ReadySetGo!® eBioscience, BD OptEIA™, or Perkin Elmer AlphaLISA®). Cell death is assessed by measurement of LDH release relative to a 100% cell lysis control using the CytoTox96® non-radioactive cytotoxicity assay (Promega).

[1] = Single dose pharmacokinetic study in mice (iv 4 mg/Kg, po 20 mg/Kg), plasma concentration post-dosing; format: in vivo, mouse; conditions: mice, iv dose of 4 mg/Kg and po dose of 20 mg/Kg
Experimental: This is advantageous leading to comparatively lower doses or less frequent administration. The procedure followed was: Male C57BL/6 mice were used at 7-9 weeks age with 3 animals per group. Mice were dosed with test compound using single intravenous bolus or oral gavage. Blood samples were taken via submandibular or saphenous vein for analysis of plasma concentrations of compound by LC-MS/MS at the following timepoints: IV (3 mice): 0.083, 0.25, 0.5, 1, 2, 4, 8 and 24 hours post dosing, PO (3 mice): 0.25, 0.5, 1, 2, 4, 8 and 24 hours post dosing. LC-MS/MS method for the quantitative determination of test compound in corresponding biological matrix was developed. […] The results are shown graphically in FIGS. 1A to 1C (MCC950) and FIGS. 2A to 2C (MCC7840).

[2] = inhibition of IL-1β release, class symbols, read-out: Avg. IL-1β IC50 HMDM
[3] = commercial compounds (Table 9), read-out: HMDM IC50 vs NLRP3

Chain of NLRP3 inflammasome (Q96P20 whole entry): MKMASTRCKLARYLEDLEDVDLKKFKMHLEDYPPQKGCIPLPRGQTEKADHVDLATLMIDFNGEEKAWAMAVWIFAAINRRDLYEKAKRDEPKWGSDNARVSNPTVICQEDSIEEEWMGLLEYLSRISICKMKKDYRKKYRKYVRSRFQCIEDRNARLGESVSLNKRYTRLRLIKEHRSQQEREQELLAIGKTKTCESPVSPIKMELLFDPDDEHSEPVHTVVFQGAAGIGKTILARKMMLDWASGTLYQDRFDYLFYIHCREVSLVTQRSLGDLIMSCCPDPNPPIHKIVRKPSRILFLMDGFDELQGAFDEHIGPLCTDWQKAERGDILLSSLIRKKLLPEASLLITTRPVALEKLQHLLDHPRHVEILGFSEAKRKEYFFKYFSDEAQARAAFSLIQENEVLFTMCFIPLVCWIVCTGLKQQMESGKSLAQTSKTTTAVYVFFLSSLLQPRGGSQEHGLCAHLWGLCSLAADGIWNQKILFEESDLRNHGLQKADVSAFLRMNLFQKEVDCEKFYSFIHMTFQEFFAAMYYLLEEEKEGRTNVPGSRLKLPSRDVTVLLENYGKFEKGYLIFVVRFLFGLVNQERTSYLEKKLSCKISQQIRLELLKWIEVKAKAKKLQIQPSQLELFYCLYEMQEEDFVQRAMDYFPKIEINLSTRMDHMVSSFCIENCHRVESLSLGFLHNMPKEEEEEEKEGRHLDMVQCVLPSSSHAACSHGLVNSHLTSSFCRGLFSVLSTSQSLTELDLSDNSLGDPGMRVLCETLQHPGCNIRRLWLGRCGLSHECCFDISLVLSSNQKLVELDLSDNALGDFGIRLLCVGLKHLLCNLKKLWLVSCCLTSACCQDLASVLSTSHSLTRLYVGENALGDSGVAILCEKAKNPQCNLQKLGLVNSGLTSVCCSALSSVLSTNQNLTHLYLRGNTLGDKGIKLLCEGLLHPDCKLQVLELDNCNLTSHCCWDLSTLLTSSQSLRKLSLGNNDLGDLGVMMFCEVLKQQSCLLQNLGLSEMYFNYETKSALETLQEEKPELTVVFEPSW

Structure (SMILES) | IC50 (NLRP3 inflammasome; [2]) [nM] | also measured
O=C(Nc1c2c(cc3c1CCC3)CCC2)NS(=O)(=O)c1ccn(CCN2CCCCC2)n1 [N-((1,2,3,5,6,7-hexahydro-s-indacen-4-yl)carbamoyl)-1-(2-(piperidin-1-yl)ethyl)-1H-pyrazole-3-sulfonamide] | < 10000 | 
O=C(Nc1c2c(cc3c1CCC3)CCC2)NS(=O)(=O)c1cccc(-n2cc(-c3ccccc3)nn2)c1 [N-((1,2,3,5,6,7-hexahydro-s-indacen-4-yl)carbamoyl)-3-(4-phenyl-1H-1,2,3-triazol-1-yl)benzenesulfonamide] | < 10000 | 
CN(CC(=O)NCCc1ccc(S(=O)(=O)NC(=O)Nc2c3c(cc4c2CCC4)CCC3)cc1)c1ccc([N+](=O)[O-])c2nonc12 [N-(4-(N-(1,2,3,5,6,7-Hexahydros-indacen-4-ylcarbamoyl)sulfamoyl)phenethyl)-2-(methyl(7-nitrobenzo[c][1,2,5]oxadiazol-4-yl)amino)acetamide] | < 10000 | 
O=C(Nc1c2c(cc3c1CCC3)CCC2)NS(=O)(=O)c1cnc2c(c1)CCC2 [N-((1,2,3,5,6,7-hexahydro-s-indacen-4-yl)carbamoyl)-6,7-dihydro-5H-cyclopenta[b]pyridine-3-sulfonamide] | < 100 | 
CN(C)c1cccc2c(S(=O)(=O)NC(=O)Nc3c4c(cc5c3CCC5)CCC4)cccc12 [5-(dimethylamino)-N-((1,2,3,5,6,7-hexahydro-s-indacen-4-yl)carbamoyl)naphthalene-1-sulfonamide] | < 1000 | 
O=C(Nc1c2c(cc3c1CCC3)CCC2)NS(=O)(=O)C1CCCCC1 [N-((1,2,3,5,6,7-hexahydro-s-indacen-4-yl)carbamoyl)cyclohexanesulfonamide] | < 10000 | 
CCc1ccc(S(=O)(=O)NC(=O)Nc2c3c(cc4c2CCC4)CCC3)o1 [5-ethyl-N-((1,2,3,5,6,7-hexahydro-s-indacen-4-yl)carbamoyl)furan-2-sulfonamide] | < 1000 | 
O=C(Nc1c2c(cc3c1CCC3)CCC2)NS(=O)(=O)c1cc(C(F)(F)F)ccn1 [N-((1,2,3,5,6,7-hexahydro-s-indacen-4-yl)carbamoyl)-4-(trifluoromethyl)pyridine-2-sulfonamide] | < 100 | 
CCCCNC(=O)NS(=O)(=O)c1ccc(N)cc1 [Carbutamide, reference compound] |  | IC50 (NLRP3 inflammasome; [3]): > 200000 nM
O=C(Nc1c2c(cc3c1CCC3)CCC2)NS(=O)(=O)N1CCOCC1 [N-((1,2,3,5,6,7-hexahydro-s-indacen-4-yl)carbamoyl)morpholine-4-sulfonamide] | < 10000 | 
O=C(Nc1c2c(cc3c1CCC3)CCC2)NS(=O)(=O)c1cc2ccccc2o1 [N-((1,2,3,5,6,7-hexahydro-s-indacen-4-yl)carbamoyl)benzofuran-2-sulfonamide] | < 1000 | 
CC(C)c1cc(Cl)cc(C(C)C)c1NC(=O)NS(=O)(=O)c1cc(C(C)(C)O)n(-c2ccccc2)n1 [sodium ((4-chloro-2,6-diisopropylphenyl)carbamoyl)((5-(2-hydroxypropan-2-yl)-1-phenyl-1H-pyrazol-3-yl)sulfonyl)amide] | < 100 | 
NC(=O)c1cccc(S(=O)(=O)NC(=O)Nc2c3c(cc4c2CCC4)CCC3)c1 [3-(N-(1,2,3,5,6,7-Hexahydro-s-indacen-4-ylcarbamoyl)sulfamoyl)benzamide] | < 1000 | 
CC(C)(O)c1ccnc(S(=O)(=O)NC(=O)Nc2c3c(cc4c2CCC4)CCC3)c1 [N-(1,2,3,5,6,7-hexahydro-s-indacen-4-ylcarbamoyl)-4-(2-hydroxypropan-2-yl)pyridine-2-sulfonamide] | < 100 | 
CC(C)(O)c1coc(S(=O)(=O)NC(=O)Nc2cccc3cccnc23)c1 [4-(2-hydroxypropan-2-yl)-N-(quinolin-8-ylcarbamoyl)furan-2-sulfonamide] | < 10000 | 
COc1cc(NC(=O)NS(=O)(=O)c2cc(C(C)(C)O)co2)c2ncccc2c1 [4-(2-hydroxypropan-2-yl)-N-((6-methoxyquinolin-8-yl)carbamoyl)furan-2-sulfonamide] | < 10000 | 
O=C(Nc1cccc2ncccc12)NS(=O)(=O)c1cccc(C2(C(F)(F)F)N=N2)c1 [N-(quinolin-5-ylcarbamoyl)-3-(3-(trifluoromethyl)-3H-diazirin-3-yl)benzenesulfonamide] | < 50000 | 

Structure (SMILES) | IC50 (NLRP3 inflammasome; [2]) [nM] | also measured
Cn1nc(S(=O)(=O)NC(=O)Nc2c3c(cc4c2CCC4)CCC3)cc1C(F)(F)F [N-((1,2,3,5,6,7-hexahydro-s-indacen-4-yl)carbamoyl)-1-methyl-5-(trifluoromethyl)-1H-pyrazole-3-sulfonamide] | < 1000 | 
[2H]C([2H])([2H])C(O)(c1cc(S(=O)(=O)NC(=O)Nc2c3c(cc4c2CCC4)CCC3)oc1C)C([2H])([2H])[2H] [N-((1,2,3,5,6,7-hexahydro-s-indacen-4-yl)carbamoyl)-4-(2-hydroxypropan-2-yl-1,1,1,3,3,3-d6)-5-methylfuran-2-sulfonamide] | < 100 | 
CC(C)n1ccc(S(=O)(=O)NC(=O)Nc2c3c(cc4c2CCC4)CCC3)n1 [MCC7840, N-((1,2,3,5,6,7-hexahydro-s-indacen-4-yl)carbamoyl)-1-isopropyl-1H-pyrazole-3-sulfonamide] |  | area under the curve (AUC) in comparison to MCC950 [1]: increased; half-life in comparison to MCC950 [1]: extended half-life; maximum concentration (Cmax) in comparison to MCC950 [1]: increased maximum concentration (Cmax)
CC(C)c1cc(Cl)cc(C(C)C)c1NC(=O)NS(=O)(=O)c1cccc2ncccc12 [N-((4-chloro-2,6-diisopropylphenyl)carbamoyl)quinoline-5-sulfonamide] | < 1000 | 
CC(C)(O)c1coc(S(=O)(=O)NC(=O)Nc2c3c(cc4c2C(O)CC4)CCC3)c1 (stereo not drawn) [N-((3-hydroxy-1,2,3,5,6,7-hexahydro-s-indacen-4-yl)carbamoyl)-4-(2-hydroxypropan-2-yl)furan-2-sulfonamide] | < 1000 | 
O=C(Nc1cccc2cccnc12)NS(=O)(=O)c1cccc(C2(C(F)(F)F)N=N2)c1 [N-(quinolin-8-ylcarbamoyl)-3-(3-(trifluoromethyl)-3H-diazirin-3-yl)benzenesulfonamide] | < 10000 | 
O=C(Nc1c2c(cc3c1CCC3)CCC2)NS(=O)(=O)C1CCOCC1 [N-((1,2,3,5,6,7-hexahydro-s-indacen-4-yl)carbamoyl)tetrahydro-2H-pyran-4-sulfonamide] | < 1000 | 
[2H]C([2H])([2H])C(O)(c1cc(S(=O)(=O)NC(=O)Nc2c3c(c(Br)c4c2OCC4)CCC3)oc1C)C([2H])([2H])[2H] [N-((4-bromo-3,5,6,7-tetrahydro-2H-indeno[5,6-b]furan-8-yl)carbamoyl)-4-(2-hydroxypropan-2-yl-1,1,1,3,3,3-d6)-5-methylfuran-2-sulfonamide] | < 100 | 
CC(C)c1cc(Cl)cc(C(C)C)c1NC(=O)NS(=O)(=O)c1cccc2cccnc12 [N-((4-chloro-2,6-diisopropylphenyl)carbamoyl)quinoline-8-sulfonamide] | < 10000 | 
COc1ccccc1S(=O)(=O)NC(=O)Nc1c2c(cc3c1CCC3)CCC2 [N-((1,2,3,5,6,7-hexahydro-s-indacen-4-yl)carbamoyl)-2-methoxybenzenesulfonamide] | < 1000 | 
O=C(Nc1c2c(cc3c1CCC3)CCC2)NS(=O)(=O)c1ccn(C2CC2)n1 [1-cyclopropyl-N-((1,2,3,5,6,7-hexahydro-s-indacen-4-yl)carbamoyl)-1H-pyrazole-3-sulfonamide] | < 100 | 
CN(C)c1ccc2c(CC(=O)NCCc3ccc(S(=O)(=O)NC(=O)Nc4c5c(cc6c4CCC6)CCC5)cc3)cc(=O)oc2c1 [2-(7-(Dimethylamino)-2-oxo-2H-chromen-4-yl)-N-(4-(N-(1,2,3,5,6,7-hexahydro-s-indacen-4-ylcarbamoyl)sulfamoyl)phenethyl)acetamide] | < 1000 | 
CC(C)c1cc(Cl)cc(C(C)C)c1NC(=O)NS(=O)(=O)c1cccc2cnccc12 [N-((4-chloro-2,6-diisopropylphenyl)carbamoyl)isoquinoline-5-sulfonamide] | < 1000 | 
CC(C)c1cccc(C(C)C)c1NC(=O)NS(=O)(=O)c1cc(C(F)(F)F)n(C)n1 [N-((2,6-diisopropylphenyl)carbamoyl)-1-methyl-5-(trifluoromethyl)-1H-pyrazole-3-sulfonamide] | < 10000 | 
Cc1ccc(S(=O)(=O)NC(=O)NN2CCCCCC2)cc1 [Tolazamide, reference compound] |  | IC50 (NLRP3 inflammasome; [3]): > 200000 nM
CC(c1ccccc1)n1ccc(S(=O)(=O)NC(=O)Nc2c3c(cc4c2CCC4)CCC3)n1 (stereo not drawn) [N-((1,2,3,5,6,7-hexahydro-s-indacen-4-yl)carbamoyl)-1-(1-phenylethyl)-1H-pyrazole-3-sulfonamide] | < 1000 | 
COc1ccc2c(c1)C(=O)N(CCc1ccc(S(=O)(=O)NC(=O)NC3CCCCC3)cc1)C(=O)C2(C)C [Gliquidone, N-(cyclohexylcarbamoyl)-4-(2-(7-methoxy-4,4-dimethyl-1,3-dioxo-3,4-dihydroisoquinolin-2(1H)-yl)ethyl)benzenesulfonamide, reference compound] |  | IC50 (NLRP3 inflammasome; [3]): 32000 nM

Reference: patent publication US10538487B2, “Sulfonylureas and related compounds and use of same” (priority 2015, dated 2020)
